The target in experiment [1] is human activated kallikrein enzyme (Homo sapiens, UniProt P03952). Kind of experiment: Inhibition of human activated plasma kallikrein, fluorogenic peptide substrate (PFR-AMC) assay, 500 pM enzyme format. As to conditions: format with 500 pM activated kallikrein, 300 uM PFR-AMC, 30 min preincubation, 10 min reaction, room temperature; read-out: Primary Dose Response Assay: Average EC50. Format: biochemical. On the procedure:
Inhibitory Activity of Exemplary Compounds against Plasma Kallikrein.
Compounds were evaluated for inhibition of the human activated kallikrein enzyme in two formats of an assay employing a fluorogenic peptide substrate. In one assay format, the concentrations of reagents were as follows: 20 mM Tris pH 7.5, 1 mM EDTA, 150 mM sodium chloride, 0.1% PEG-400, 0.1% Triton X-100, 500 pM activated kallikrein enzyme, 300 uM Pro-Phe-Arg-7-amido-4-methylcoumarin (PFR-AMC) substrate. Prior to reaction initiation with substrate, enzyme and inhibitors were preincubated for 30 min at room temperature. After initiation with substrate, reactions were incubated for 10 min at room temperature and fluorescence emission at 460 nm from 380 nm excitation measured with a microplate reader. In another assay format, the concentrations of reagents were as follows: 20 mM Tris pH 7.5, 1 mM EDTA, 150 mM sodium chloride, 0.1% PEG-400, 0.1% Triton X-100, 5 pM activated kallikrein enzyme, 300 uM PFR-AMC substrate. Prior to reaction initiation with substrate, enzyme and inhibitors were preincubated for 30 min at room temperature. After initiation with substrate, reactions were incubated for 18 hr at room temperature and fluorescence emission at 460 nm from 380 nm excitation measured with a microplate reader.

In a further experiment the target is T1, plasma kallikrein (Homo sapiens, UniProt P03952).
T1 construct: from tissue; host or cells: sodium citrate collected human plasma (78% final)
T1 sequence (P03952 391-638 limits assumed): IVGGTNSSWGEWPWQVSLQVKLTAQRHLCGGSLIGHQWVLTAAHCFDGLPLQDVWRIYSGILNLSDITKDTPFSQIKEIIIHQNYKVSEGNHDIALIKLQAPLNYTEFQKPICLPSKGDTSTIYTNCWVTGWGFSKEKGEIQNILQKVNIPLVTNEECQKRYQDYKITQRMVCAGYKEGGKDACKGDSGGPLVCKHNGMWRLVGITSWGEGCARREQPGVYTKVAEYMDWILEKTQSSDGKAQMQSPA
T1 sequence (P03952 20-390 partner limits assumed): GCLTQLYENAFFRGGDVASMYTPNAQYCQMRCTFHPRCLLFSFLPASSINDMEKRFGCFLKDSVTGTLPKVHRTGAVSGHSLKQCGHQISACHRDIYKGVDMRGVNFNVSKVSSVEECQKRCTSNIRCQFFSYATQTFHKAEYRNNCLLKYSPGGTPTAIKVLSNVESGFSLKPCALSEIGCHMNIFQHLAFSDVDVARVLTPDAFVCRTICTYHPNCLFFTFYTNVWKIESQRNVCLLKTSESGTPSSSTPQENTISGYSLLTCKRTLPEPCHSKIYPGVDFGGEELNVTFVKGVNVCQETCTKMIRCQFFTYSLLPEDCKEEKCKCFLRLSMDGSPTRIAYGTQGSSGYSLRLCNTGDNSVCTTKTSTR
Kind of experiment: Neat human plasma assay (contact pathway-activated plasma, FXIIa, PFR-AMC substrate). As to conditions: sodium citrate human plasma, 78% final plasma, 10 nM human FXIIa, 100 μM PFR-AMC, room temperature. Format: biochemical. The protocol: Neat Human and Rat Plasma Assay
To analyze inhibition of plasma kallikrein in an ex vivo setting, the potency of compounds was measure in contact pathway-activated plasma assays. In a fluorogenic peptide substrate assay, test compounds dissolved in DMSO were added to sodium citrate collected human or rat plasma in a 96-well microplate. Alternatively, citrated plasma was collected from rats administered the compounds orally or by IV. 10 nM of human FXIIa (Enzyme Research Laboratories) diluted in PKa buffer (20 mM Tris-HCl, pH 7.5, 150 mM NaCl, 1 mM EDTA, 0.1% PEG-8000, and 0.1% Triton X-100) was added to the plasma, followed by the 100 μM of the profluorescent, synthetic plasma kallikrein substrate PFR-AMC (also diluted in PKa buffer). Final plasma concentration in the reaction was 78%. Fluorescence was immediately monitored by excitation/emission wavelengths of 360 nm/480 nm respectively over a period of 5 minutes in a microplate reader. The resulting linear increase in fluorescence emission (reflecting PKa proteolysis of PFR-AMC substrate) was fit to extract a proteolytic rate (fluorescent units over time), and this rate was subsequently plotted against compound inhibitor concentration. Resulting plots were fit to a standard 4-parameter IC50/IC90 equation to determine min/max values, IC50/90, and slope. All experimental steps were performed at room temperature.

This passage reports EC50 and IC90 results from patent US20240199612A1, “IMIDAZOPYRIDINYL INHIBITORS OF PLASMA KALLIKREIN” (SHIRE HUMAN GENETIC THERAPIES, INC., priority 2021, published 2024).

Structures are written as SMILES.

Sequence of human activated kallikrein enzyme (P03952 391-638 limits assumed): as the sequence (P03952 391-638 limits assumed) above
Sequence of human activated kallikrein enzyme (P03952 20-390 partner limits assumed): as the sequence (P03952 20-390 partner limits assumed) above

As a reminder, the EC50 is the concentration that produces a half-maximal response. On to `C[C@@H](OC(=O)Nc1cc(NCc2cn3cc(C4CC4)ccc3n2)ncn1)c1cccc(Cl)c1` [Compound I-2, (R)-1-(3-chlorophenyl)ethyl (6-(((6-cyclopropylimidazo[1,2-a]pyridin-2-yl)methyl)amino)pyrimidin-4-yl)carbamate], for which, in experiment [1], the EC50 was below 5 nM.

What is called IC90 is the concentration needed for an effect of 90%. `O=C(NCc1cc(Cl)ccc1-n1cnnn1)Nc1cc(NCc2cn3cc(C4CC4)ccc3n2)ccn1` [Compound I-10, 1-(5-chloro-2-(1H-tetrazol-1-yl)benzyl)-3-(4-(((6-cyclopropylimidazo[1,2-a]pyridin-2-yl)methyl)amino)pyridin-2-yl)urea]: on plasma kallikrein, the IC90 fell in the range of 2500 to 7500 nM. Besides, in experiment [1], the EC50 was below 5 nM.

On plasma kallikrein, `O=C(Nc1cc(N2C[C@@H](O)C[C@@H]2c2cn3cc(C4CC4)ccc3n2)ncn1)OCc1cc(Cl)ccn1` [Compound I-28, (4-chloropyridin-2-yl)methyl (6-((2R,4S)-2-(6-cyclopropylimidazo[1,2-a]pyridin-2-yl)-4-hydroxypyrrolidin-1-yl)pyrimidin-4-yl)carbamate] had an IC90 of at most 2500 nM. Besides, in experiment [1], the EC50 was below 5 nM.

With `O=C(Nc1nccc2nn(Cc3cn4cc(C5CC5)ccc4n3)cc12)OCc1cccc(Cl)c1` [Compound I-19], the EC50 in experiment [1] fell in the range of 5 to 50 nM.

In the case of `O=C(Nc1cc(N2C[C@@H](O)C[C@@H]2c2cn3cc(C4CC4)ccc3n2)ncn1)N1CC(c2ncccn2)C1` [Compound I-33, N-(6-((2R,4S)-2-(6-cyclopropylimidazo[1,2-a]pyridin-2-yl)-4-hydroxypyrrolidin-1-yl)pyrimidin-4-yl)-3-(pyrimidin-2-yl)azetidine-1-carboxamide], the EC50 in experiment [1] is 50 to 500 nM.

In the case of `O=C(Nc1cc2c(cn1)nnn2Cc1cn2cc(C3CC3)ccc2n1)OCc1cccc(Cl)c1` [Compound I-20, 3-chlorobenzyl (1-((6-cyclopropylimidazo[1,2-a]pyridin-2-yl)methyl)-1H-[1,2,3]triazolo[4,5-c]pyridin-6-yl)carbamate], the EC50 in experiment [1] was 50 to 500 nM.

As for `O=C(Nc1cc(NCc2cn3cc(C4CC4)ccc3n2)ncn1)OCc1cccc(Cl)c1` [Compound I-1, 3-Chlorobenzyl (6-(((6-cyclopropylimidazo[1,2-a]pyridin-2-yl)methyl)amino)pyrimidin-4-yl)carbamate], in experiment [1], the EC50 was in the range of 5 to 50 nM.

In the case of `CCC(OC(=O)Nc1cc(NCc2cn3cc(C4CC4)ccc3n2)ncn1)c1cccc(Cl)c1` (stereo not drawn) [Compound I-6, 1-(3-chlorophenyl)propyl (6-(((6-cyclopropylimidazo[1,2-a]pyridin-2-yl)methyl)amino)pyrimidin-4-yl)carbamate], the EC50 in experiment [1] lay within 50 to 500 nM.

For `O=C(Nc1cc(N2C[C@@H](O)C[C@@H]2c2cn3cc(C4CC4)ccc3n2)ncn1)N1CC(c2ccccc2)C1` [Compound I-31, N-(6-((2R,4S)-2-(6-cyclopropylimidazo[1,2-a]pyridin-2-yl)-4-hydroxypyrrolidin-1-yl)pyrimidin-4-yl)-3-phenylazetidine-1-carboxamide], the EC50 in experiment [1] fell in the range of 500 to 9000 nM.

With `CC(OC(=O)Nc1cc2c(cn1)ncn2Cc1cn2cc(C3CC3)ccc2n1)c1cccc(Cl)c1` (stereo not drawn) [Compound I-17, 1-(3-chlorophenyl)ethyl (1-((6-cyclopropylimidazo[1,2-a]pyridin-2-yl)methyl)-1H-imidazo[4,5-c]pyridin-6-yl)carbamate], in experiment [1], the EC50 was in the range of 50 to 500 nM.

In the case of `O=C(Nc1cc(NCc2cn3cc(C4CC4)ccc3n2)ncn1)N1CC(c2cccc(Cl)c2)C1` [Compound I-25, 3-(3-chlorophenyl)-N-(6-(((6-cyclopropylimidazo[1,2-a]pyridin-2-yl)methyl)amino)pyrimidin-4-yl)azetidine-1-carboxamide], the EC50 in experiment [1] was above 9000 nM.

With `O=C(Nc1cc2c(cn1)ncn2Cc1cn2cc(C3CC3)ccc2n1)OCc1cccc(Cl)c1` [Compound I-16, 3-chlorobenzyl (1-((6-cyclopropylimidazo[1,2-a]pyridin-2-yl)methyl)-1H-imidazo[4,5-c]pyridin-6-yl)carbamate], the EC50 in experiment [1] was 50 to 500 nM.

With `O=C(NCc1cccc(Cl)c1)Nc1cc(NCc2cn3cc(C4CC4)ccc3n2)ncn1` [Compound I-24, 1-(3-chlorobenzyl)-3-(6-(((6-cyclopropylimidazo[1,2-a]pyridin-2-yl)methyl)amino)pyrimidin-4-yl)urea], the concentration giving a half-maximal response (EC50) in experiment [1] was 500 to 9000 nM.

In the case of `C[C@H](OC(=O)Nc1cc(NCc2cn3cc(C4CC4)ccc3n2)ncn1)c1cccc(Cl)c1` [Compound I-3, (S)-1-(3-chlorophenyl)ethyl (6-(((6-cyclopropylimidazo[1,2-a]pyridin-2-yl)methyl)amino)pyrimidin-4-yl)carbamate], the concentration giving a half-maximal response (EC50) in experiment [1] was in the range of 500 to 9000 nM.

For the molecule `O=C(Nc1cc2c(cn1)ncn2Cc1cn2cc(C3CC3)ccc2n1)OCc1cc(Cl)ccc1-n1cnnn1` [Compound I-23, 5-chloro-2-(1H-tetrazol-1-yl)benzyl (1-((6-cyclopropylimidazo[1,2-a]pyridin-2-yl)methyl)-1H-imidazo[4,5-c]pyridin-6-yl)carbamate], the EC50 in experiment [1] is below 5 nM.

`O=C(Nc1cn2c(Cc3cn4cc(C5CC5)ccc4n3)nnc2cn1)OCc1cccc(Cl)c1` [Compound I-14, 3-chlorobenzyl (3-((6-cyclopropylimidazo[1,2-a]pyridin-2-yl)methyl)-[1,2,4]triazolo[4,3-a]pyrazin-6-yl)carbamate]: the EC50 in experiment [1] lay within 50 to 500 nM.

For the molecule `O=C(NCc1cc(Cl)ccn1)Nc1cc(NCc2cn3cc(C4CC4)ccc3n2)ncn1` [Compound I-27, 1-((4-chloropyridin-2-yl)methyl)-3-(6-(((6-cyclopropylimidazo[1,2-a]pyridin-2-yl)methyl)amino)pyrimidin-4-yl)urea], the EC50 in experiment [1] fell in the range of 50 to 500 nM.

Turning to `O=C(Nc1nccc2nn(Cc3cn4cc(C5CC5)ccc4n3)cc12)OCc1cc(Cl)ccc1-n1cnnn1` [Compound I-22, 5-chloro-2-(1H-tetrazol-1-yl)benzyl (2-((6-cyclopropylimidazo[1,2-a]pyridin-2-yl)methyl)-2H-pyrazolo[4,3-c]pyridin-4-yl)carbamate], in experiment [1], the concentration giving a half-maximal response (EC50) is below 5 nM.

On to `O=C(Nc1cc(NCc2cn3cc(C4CC4)ccc3n2)ncn1)OCC(O)c1cccc(Cl)c1` (stereo not drawn) [Compound I-9, 2-(3-chlorophenyl)-2-hydroxyethyl (6-(((6-cyclopropylimidazo[1,2-a]pyridin-2-yl)methyl)amino)pyrimidin-4-yl)carbamate], for which, in experiment [1], the EC50 lay in the range of 5 to 50 nM.

Consider `O=C(Nc1cc(NCc2cn3cc(C4CC4)ccc3n2)ncn1)NC1Cc2ccc(Cl)cc21` (stereo not drawn) [Compound I-32, 1-(4-chlorobicyclo[4.2.0]octa-1(6),2,4-trien-7-yl)-3-(6-(((6-cyclopropylimidazo[1,2-a]pyridin-2-yl)methyl)amino)pyrimidin-4-yl)urea], for which the EC50 in experiment [1] was in the range of 500 to 9000 nM.

Turning to `COc1cccc(COC(=O)Nc2cc(NCc3cn4cc(C5CC5)ccc4n3)ncn2)c1` [Compound I-4, 3-methoxybenzyl (6-(((6-cyclopropylimidazo[1,2-a]pyridin-2-yl)methyl)amino)pyrimidin-4-yl)carbamate], the EC50 in experiment [1] was in the range of 50 to 500 nM.

Regarding `COc1ccnc(CNC(=O)Nc2cc(NCc3cn4cc(C5CC5)ccc4n3)ncn2)n1` [Compound I-30, 1-(6-(((6-cyclopropylimidazo[1,2-a]pyridin-2-yl)methyl)amino)pyrimidin-4-yl)-3-((4-methoxypyrimidin-2-yl)methyl)urea], the EC50 in experiment [1] lay within 500 to 9000 nM.

In the case of `CC(OC(=O)Nc1cc(NCc2cn3cc(C4CC4)ccc3n2)ncn1)c1cccc(Cl)c1F` (stereo not drawn) [Compound I-7, 1-(3-chloro-2-fluorophenyl)ethyl (6-(((6-cyclopropylimidazo[1,2-a]pyridin-2-yl)methyl)amino)pyrimidin-4-yl)carbamate], the EC50 in experiment [1] lay in the range of 5 to 50 nM.

For the molecule `O=C(NCc1nccc(Cl)n1)Nc1cc(NCc2cn3cc(C4CC4)ccc3n2)ncn1` [Compound I-29, 1-((4-chloropyrimidin-2-yl)methyl)-3-(6-(((6-cyclopropylimidazo[1,2-a]pyridin-2-yl)methyl)amino)-pyrimidin-4-yl)urea], the EC50 in experiment [1] is 50 to 500 nM.

As to `Cc1ccnc(COC(=O)Nc2cc(NCc3cn4cc(C5CC5)ccc4n3)ncn2)n1` [Compound I-34, (4-methylpyrimidin-2-yl)methyl (6-(((6-cyclopropylimidazo[1,2-a]pyridin-2-yl)methyl)amino)pyrimidin-4-yl)carbamate], the half-maximal effective concentration (EC50) in experiment [1] lay in the range of 5 to 50 nM.
